Laboratory results from patent publication US5098900A, “3(2H)pyridazinone, process for its preparation and anti-allergic agent containing it” (Nissan Chemical Industries Ltd., priority 1984, dated 1992).

Legend:
LTD4 [1] = experiment: Effect on bronchoconstriction induced by intravenous administration of LTD4; type: in vivo, guinea-pig; details: 2 mg/kg, i.v., in Tween 80; LTD4 2 μg/kg i.v.
Protocol: (iv) Effect on bronchoconstriction induced by intravenous (i.v.) administration of LTD4
Bronchoconstrictions induced by i.v. administration of LTD4 in guinea-pigs (350-450 g) were measured as described in anaphylactic bronchoconstriction. Guinea-pigs were anaesthetized with urethane (1.5 g/kg) and the trachea was cannulated to record total pulmonary resistance. The right jugular vein was cannulated for the administration of the all agents. The guinea-pigs were artificially ventilated by a small respirator set at a stroke volume of 5 ml and a rate of 50 breaths per min. LTD4 (2 μg/kg)-induced bronchoconstriction was shown by the increase in air overflow volume. After the response to histamine (5 μg/kg) was checked, the first response to LTD4 was obtain-d as control. […] Inhibition (%) of the bronchoconstriction was determined as follows: Inhibition (%) =(1.0 -peak value in the second response/peak value in the first response)×100.

SRS-A = SRS-A antagonism in guinea-pig ileum (SRS-A-induced contraction); type: cell-based; details: 1 min, test compound 5×10^-7 g/ml, isolated guinea-pig ileum; for inhibition at 0.5 µg/mL: Cavia porcellus
Protocol: (i) SRS-A antagonism in quinea-pig ileum
SRS-A antagonism was determined against the contraction induced by SRS-A in isolated guinea-pig ileum. The SRS-A was prepared in accordance with the method of Brocklehurst (J. Physiol., 151, 416, 1960) and Kohno and Parker (J. Immunol., 125, 446, 1980). Adult male guinea-pigs (200-250 g) were sensitized with chick egg albumin (EA), 100 mg subcutaneously and 100 mg intraperitoneally. Three weeks later the animals were killed by a blow on the head and lungs were perfused free of blood with Tyrode solution passed through the right ventricle. Isolated lungs were chopped into pieces (1 mm^3) by a scissors in Tyrode solution and filtrated with gauze, and then 1.0-1.3 g of chopped lung fragments were distributed into individual tubes (9.7 ml of Tyrode solution/tube). EA solution (0.3 ml) at a 3×10^-4 g/ml final concentration was added to the tubes and incubated for 20 min at 37° C., and then the supernatant was used for the SRS-A antagonism.
Assay for SRS-A antagonism was performed as follows: Ileum preparations isolated from male guinea-pig (300-400 g) were suspended under 0.5 g tension in organ baths (5 ml) containing Tyrode solution maintained at 30° C. and gassed with 95% O2 +5% CO2. After the repeated responses to histamine (10^-7 g/ml) was established, the contractile response to SRS-A (0.5 ml) was carried out in the presence of 10^-6 M atropine and 10^-6 M pyrilamine. Test compounds dissolved in 100% dimethyl sulfoxide were added to the organ baths (final concentration of 5×10^-7 g/ml) 1 min prior to the SRS-A addition, and SRS-A-induced contractions were compared with those of control (SRS-A-induced contraction before the treatment). The SRS-A antagonism (%) =[1.0 - (SRS-A-induced contraction in test compound)/control]×100

[2] = tested on: antigen-induced anaphylactic bronchoconstriction; experiment: Effect on anaphylactic bronchoconstriction in passively sensitized guinea-pig; type: in vivo; details: 2 mg/kg, i.v.
Protocol: (iii) Effect on anaphylactic bronchoconstriction in passively sensitized guinea-pig
Male guinea-pigs (350-450 g) were passively sensitized with intravenous (i.v.) injection of 0.125 ml rabbit anti-EA serum (Cappel Laboratories) 1 day preceding the experiment. […] The right jugular vein was cannulated for the administration of the all agents and trachea was cannulated to record total pulmonary resistance. Guinea-pigs were artificially ventilated by a small animal respirator (Shinano, Model SN-480-7) set at a stroke volume of 4-5 ml and a rate of 50 breaths per min. […] The increase in air overflow volume was expressed as a percentage of the maximum bronchoconstriction obtained by clamping off the trachea. Following surgical preparation, the animals were pretreated with indomethacin (1.0 mg/kg, 10 min), pyrilamine (2 mg/kg, 6 min) and propranolol (0.1 mg/kg, 5 min) prior to the EA challenge (0.1 or 10 mg/kg). All test compounds, 2 mg/kg in 3% Tween 80 or 3% PEG-400, were administered 1 min before the EA challenge. Inhibition (%) of bronchoconstriction was determined as follows Inhibition (%)=(1.0% -maximum bronchoconstriction in test/% maximum bronchoconstriction in control) ×100.
In the Table, the dose of EA was 10 mg/kg, and each compound was dissolved or suspended in 3% Tween 80.
In the Table, the dose of EA was 0.1 mg/kg.
*: PEG represents polyethylene glycol400.

LTC4 = LTC4 antagonism in isolated guinea-pig trachea (LTC4-induced contraction); type: cell-based; details: 5 min, test compound 10^-5 g/ml, LTC4 2×10^-8 g/ml, guinea-pig trachea; for inhibition at 10 µg/mL: Cavia porcellus, read-out: LTC4 antagonism
Protocol: (§1) (ii) LTC4 and LTD4 antagonisms in guinea-pig trachea
(§2) Antagonism for LTC4 and LTD4 were determined in isolated guinea-pig trachea prepared as spiral strip. 10 Tracheal preparations were suspended under 1 g tension in […] and they were incubated for 1 hr prior to use. Contractile responses to LTC4 (2×10^-8 g/ml) and LTD4 (2×10^-8 g/ml) were obtained after the maximal response to histamine (10^-4 M). Test compounds dissolved in 100% dimethyl sulfoxide were added to the organ baths (final concentration of 10^-5 g/ml) 5 min prior to LTC4 and LTD4 addition, and then contractile responses to LTC4 and LTD4 were compared with those of control which was obtained from a paired trachea in the absence of test compounds. LTC4 - and LTD4 -induced contractions were expressed as a percentage of the maximal response to histamine. The antagonism was determined as follows: Antagonism (%)=(1.0-% contraction in test/% contraction in control)×100

LTD4 [3] = experiment: LTD4 antagonism in isolated guinea-pig trachea (LTD4-induced contraction); type: cell-based; details: Cavia porcellus, 5 min, test compound 10^-5 g/ml, LTD4 2×10^-8 g/ml
Protocol: as §1, §2

ddY strain male = experiment: Acute toxicity test, method-(2), intraperitoneal injection; type: in vivo, ddY strain male (4 weeks old); details: 7 days
Protocol: The lethal ratio was determined in ddY strain male (4 weeks old) at 7 days after the intraperitoneal injection of test compounds.

| Compound | inhibition at 0.5 µg/mL (SRS-A) | inhibition at 10 µg/mL (LTC4) | further results |
| --- | --- | --- | --- |
| CC(C)(C)n1ncc(NCc2ccccc2)c(Cl)c1=O [Compound No. 1] | 14% |  | Inhibition of LTD4-induced bronchoconstriction (LTD4 [1]): 23% |
| Cc1cccc(CNc2cnn(C(C)(C)C)c(=O)c2Cl)c1 [Compound No. 2] | 47% | 84% | Inhibition of anaphylactic bronchoconstriction ([2]; EA 10 mg/kg, 3% Tween 80): 21% |
| Cc1ccc(CNc2cnn(C(C)(C)C)c(=O)c2Cl)cc1 [Compound No. 3] | 64% | 42% | inhibition at 10 µg/mL (LTD4 [3]): 50%; Inhibition of LTD4-induced bronchoconstriction (LTD4 [1]): 60.6% |
| CC(C)c1ccc(CNc2cnn(C(C)(C)C)c(=O)c2Cl)cc1 [Compound No. 5] | 74% | 67% |  |
| COc1ccc(CNc2cnn(C(C)(C)C)c(=O)c2Cl)cc1 [Compound No. 9] | 72% |  | Inhibition of anaphylactic bronchoconstriction ([2]; EA 10 mg/kg, 3% Tween 80): 35%; Inhibition of LTD4-induced bronchoconstriction (LTD4 [1]): 38% |
| COc1ccc(CNc2cnn(C(C)(C)C)c(=O)c2Cl)cc1C [Compound No. 12] | 73% | 67% |  |
| COc1ccc(CNc2cnn(C(C)(C)C)c(=O)c2Cl)cc1OC [Compound No. 16] | 55% | 96% |  |
| CC(C)(C)n1ncc(NCc2ccc(C(=O)O)cc2)c(Cl)c1=O [Compound No. 23, 4-chloro-5-(4-carboxybenzylamino)-2-t-butyl-3(2H)pyridazinone] | 18% |  |  |
| CN(C)c1ccc(CNc2cnn(C(C)(C)C)c(=O)c2Cl)cc1 [Compound No. 25, 4-Chloro-5-(4-dimethylaminobenzylamino)-2-t-butyl-3(2H)-pyridazinone] |  |  | SRS-A antagonism (SRS-A): 81% |
| CCOC(=O)c1ccc(CNc2cnn(C(C)(C)C)c(=O)c2Cl)cc1 [Compound No. 52] | 72% |  | Inhibition of anaphylactic bronchoconstriction ([2]; EA 10 mg/kg, 3% Tween 80): 30% |
| COc1ccc(CNc2cnn(C(C)C)c(=O)c2Cl)c(OC)c1 [Compound No. 97, 4-chloro-5-(2,4-dimethoxybenzylamino)-2-i-propyl-3(2H)pyridazinone] |  | 100% | inhibition at 10 µg/mL (LTD4 [3]): 100%; Inhibition of anaphylactic bronchoconstriction ([2]; EA 0.1 mg/kg, Tween 80): 32%; Lethal ratio (Death number/Experimental number) (ddY strain male; 200 mg/kg): 0/2; Lethal ratio (Death number/Experimental number) (ddY strain male; 400 mg/kg): 0/1 |
| CCCOc1cc(CNc2cnn(CC)c(=O)c2Cl)ccc1OC [Compound No. 105] |  | 100% | inhibition at 10 µg/mL (LTD4 [3]): 100%; Inhibition of anaphylactic bronchoconstriction ([2]; EA 0.1 mg/kg, Tween 80): 29%; Lethal ratio (Death number/Experimental number) (ddY strain male; 100 mg/kg): 0/2 |
| CCCOc1cc(CNc2cnn(C(C)C)c(=O)c2Cl)ccc1OC [Compound No. 106, 4-Chloro-5-(3-n-propoxy-4-methoxybenzylamino)-2-i-propyl-3(2H)pyridazinone] |  | 100% | inhibition at 10 µg/mL (LTD4 [3]): 100%; Inhibition of anaphylactic bronchoconstriction ([2]; EA 0.1 mg/kg, Tween 80): 65%; Lethal ratio (Death number/Experimental number) (ddY strain male; 200 mg/kg): 0/2; Lethal ratio (Death number/Experimental number) (ddY strain male; 400 mg/kg): 0/1 |
| CCCOc1ccc(CNc2cnn(C(C)(C)C)c(=O)c2Cl)cc1 [compound 11] | 74% | 25% | Inhibition of anaphylactic bronchoconstriction ([2]; EA 10 mg/kg, 3% Tween 80): 21% |
| CC(C)(C)n1ncc(NCc2ccc3c(c2)OCO3)c(Cl)c1=O [compound 18] | 74% |  |  |
| CSc1ccc(CNc2cnn(C(C)(C)C)c(=O)c2Cl)cc1 [compound 21] | 77% | 36% |  |
| CC(C)(C)n1ncc(NCc2ccc(Cl)cc2)c(Cl)c1=O [compound 22] | 76% | 20% | Inhibition of anaphylactic bronchoconstriction ([2]; EA 10 mg/kg, 3% Tween 80): 23% |
| CC(C)(C)n1ncc(NCc2ccc(N3CCOCC3)cc2)c(Cl)c1=O [compound 30] | 53% | 13% |  |
| CCN(CC)Cc1ccc(CNc2cnn(C(C)(C)C)c(=O)c2Cl)cc1 [compound 32] | 18% | 20% |  |
| CC(C)(C)n1ncc(NCc2ccc(CN3CCOCC3)cc2)c(Cl)c1=O [compound 33] | 41% | 17% |  |
| CN1CCN(Cc2ccc(CNc3cnn(C(C)(C)C)c(=O)c3Cl)cc2)CC1 [compound 34] | 19% |  |  |
| CCN1CCN(Cc2ccc(CNc3cnn(C(C)(C)C)c(=O)c3Cl)cc2)CC1 [compound 35] | 10% |  | LTC4 antagonism (LTC4): 37% |
| CCN(CC)C(=O)c1ccc(CNc2cnn(C(C)(C)C)c(=O)c2Cl)cc1 [compound 38] | 31% |  |  |
| CN1CCN(C(=O)c2ccc(CNc3cnn(C(C)(C)C)c(=O)c3Cl)cc2)CC1 [compound 41] | 15% |  |  |
| CCN1CCN(C(=O)c2ccc(CNc3cnn(C(C)(C)C)c(=O)c3Cl)cc2)CC1 [compound 42] | 14% |  |  |
| COCCNC(=O)c1ccc(CNc2cnn(C(C)(C)C)c(=O)c2Cl)cc1 [compound 55] | 12% | 14% |  |
| CCn1ncc(NCc2cccc(C)c2)c(Cl)c1=O [compound 75] |  | 100% | inhibition at 10 µg/mL (LTD4 [3]): 90%; Inhibition of anaphylactic bronchoconstriction ([2]; EA 0.1 mg/kg, Tween 80): 57%; Lethal ratio (Death number/Experimental number) (ddY strain male; 100 mg/kg): 0/2 |
| COc1ccccc1CNc1cnn(C(C)C)c(=O)c1Cl [compound 86] |  | 100% | inhibition at 10 µg/mL (LTD4 [3]): 87%; Inhibition of anaphylactic bronchoconstriction ([2]; EA 0.1 mg/kg, Tween 80): 29%; Lethal ratio (Death number/Experimental number) (ddY strain male; 200 mg/kg): 0/2; Lethal ratio (Death number/Experimental number) (ddY strain male; 400 mg/kg): 0/1 |
| CCOc1cccc(CNc2cnn(CC)c(=O)c2Cl)c1 [compound 88] |  | 81% | inhibition at 10 µg/mL (LTD4 [3]): 95%; Inhibition of anaphylactic bronchoconstriction ([2]; EA 0.1 mg/kg, Tween 80): 45%; Lethal ratio (Death number/Experimental number) (ddY strain male; 200 mg/kg): 0/2; Lethal ratio (Death number/Experimental number) (ddY strain male; 400 mg/kg): 0/2 |
| CCOc1cc(CNc2cnn(C(C)C)c(=O)c2Cl)ccc1OC [compound 103] |  | 100% | inhibition at 10 µg/mL (LTD4 [3]): 100%; Inhibition of anaphylactic bronchoconstriction ([2]; EA 0.1 mg/kg, Tween 80): 76%; Lethal ratio (Death number/Experimental number) (ddY strain male; 200 mg/kg): 0/2 |
